# Patent US20260130933A1, “PHARMACEUTICAL COMPOSITION FOR PREVENTION OR TREATMENT OF NEPHROPATHY AND/OR DIABETES MELLITUS, COMPRISING ENAVOGLIFLOZIN” (DAEWOONG PHARMACEUTICAL CO., LTD., priority 2022, published 2026)
# Experiment: Example 3: phase 3 trial, enavogliflozin 0.3 mg vs dapagliflozin 10 mg once a day for 24 weeks added to metformin and gemigliptin in patients with type 2 diabetes (same endpoints, rescue drug)
# Format: in vivo, human
# Description: 1) when Metformin (≥1,000 mg/Day) was Administered at a Constant Dose for at Least 8 Weeks Prior to Pre-Visit (Pre-Screening) • Metformin (≥1,000 mg/day) and gemigliptin (50 mg/day) were co-administered during the 8-week stabilization period. […] 4) when Metformin (≥1,000 mg/Day) and Gemigliptin (50 mg/Day) were Co-Administered at Constant Doses for at Least 8 Weeks Prior to Pre-Visit (Prescreening) • Without a separate stabilization period, Pre-visit (pre-screening) was Visit 1 (screening).
# Subjects who met the inclusion/exclusion criteria continued to receive metformin and gemigliptin while receiving a placebo of the clinical trial drug in a single-blind (subject-blinded) state for a 2-week run-in period.
# Here, the randomized subjects were stratified according to the administration therapy (co-administration with two or less agents (one or two agents) or three or more agents) of a conventional hypoglycemic agent (before washout of another hypoglycemic agent) within 24 weeks prior to obtaining written informed consent and by an HbA1c value (<8% or ≥8%) at Visit 1 (screening) measured in the central laboratory.
# The randomized subjects were administered two tablets of the clinical trial drug corresponding to each administration group once a day, and then visited the institution at weeks 6, 12, 18, and 24 during the 24-week administration period to conduct efficacy and safety assessments. In addition, during the clinical trial period, they were instructed to exercise regularly and control their diet without changing their daily life patterns.
# • 1) Change in HbA1c at week 24 after administration of clinical trial drug compared to Visit 2 (randomization)
# • 1) Change in HbA1c at each time point of weeks 6, 12, and 18 after administration of clinical trial drug compared to Visit 2 (randomization) • 2) Change in FPG at each time point of weeks 6, 12, 18, and 24 after administration of clinical trial drug compared to Visit 2 (randomization) • 3) Proportion of subjects achieving HbA1c<7% at each time point of weeks 6, 12, 18, and 24 after administration of clinical trial drug • 4) Proportion of subjects achieving HbA1c<6.5% at each time point of weeks 6, 12, 18, and 24 after administration of clinical trial drug • 5) Proportion of subjects achieving therapeutic response (HbA1c change (HbA1c at Visit 2—HbA1c at each evaluation time point)>0.5% or HbA1c<7% at each evaluation time point compared to Visit 2 (randomization)) at each time point of weeks 6, 12, 18, and 24 after administration of clinical trial drug • 6) Proportion of subjects achieving therapeutic response (HbA1c change (HbA1c at Visit 2—HbA1c at each evaluation time point)>0.7% or HbA1c<7% at each evaluation time point compared to Visit 2 (randomization)) at each time point of weeks 6, 12, 18, and 24 after administration of clinical trial drug • 7) Proportion of subjects achieving therapeutic response (HbA1c change (HbA1c at Visit 2—HbA1c at each evaluation time point)>1% or HbA1c<7% at each evaluation time point compared to Visit 2 (randomization)) at each time point of weeks 6, 12, 18, and 24 after administration of clinical trial drug
# [1] = week 12, per-protocol set, enavogliflozin 0.3 mg, dapagliflozin 10 mg
# [2] = week 18, modified per-protocol set 1, enavogliflozin 0.3 mg, dapagliflozin 10 mg
# [3] = week 18, modified per-protocol set 2
# [4] = week 18, modified per-protocol set 2, enavogliflozin 0.3 mg, dapagliflozin 10 mg
# [5] = week 18, per-protocol set, enavogliflozin 0.3 mg, dapagliflozin 10 mg
smiles,measurement,setting,value
"CCOc1ccc(Cc2cc([C@@H]3O[C@H](CO)[C@@H](O)[C@H](O)[C@H]3O)ccc2Cl)cc1 [Dapagliflozin, reference compound]","Subjects achieving HbA1c target of <7%, %",[1],63.41%
same,"body weight, Median",[1],63.20 kg
same,"Subjects achieving therapeutic glycemic response 1, %","week 12, per-protocol set, response 1 = HbA1c change >0.5% or HbA1c <7%, enavogliflozin 0.3 mg, dapagliflozin 10 mg",89.43%
same,"Subjects achieving therapeutic glycemic response 2, %","week 12, per-protocol set, response 2 = HbA1c change >0.7% or HbA1c <7%, enavogliflozin 0.3 mg, dapagliflozin 10 mg",82.11%
same,"Subjects achieving therapeutic glycemic response 3, %","week 12, per-protocol set, response 3 = HbA1c change >1% or HbA1c <7%, enavogliflozin 0.3 mg, dapagliflozin 10 mg",73.98%
same,"FPG change from baseline, LS mean (SE)",week 18,−23.55(1.59) mg/dL
same,"HDL-C change from baseline, LS mean (SE)",week 18,3.42(0.62) mg/dL
same,"HOMA-IR change from baseline, LS mean (SE)",week 18,−1.01(0.11)
same,"HOMA-β change from baseline, LS mean (SE)",week 18,4.49(2.22)
same,"HbA1c change from baseline, LS mean (SE)",week 18,−0.75(0.04) % p
same,"LDL-C change from baseline, LS mean (SE)",week 18,1.38(1.59) mg/dL
same,"UACR change from baseline, LS mean (SE)",week 18,−8.90(3.79) g/kg
same,"UGCR change from baseline, LS mean (SE)",week 18,45.40(2.27) mg/mg
same,"adiponectin change from baseline, LS mean (SE)",week 18,0.36(0.32) μg/mL
same,"body weight change from baseline, LS mean (SE)",week 18,−3.01(0.23) kg
same,"diastolic blood pressure change from baseline, LS mean (SE)",week 18,−2.42(0.68) mmHg
same,"fasting C-peptide change from baseline, LS mean (SE)",week 18,−0.06(0.02) ng/mL
same,"leptin change from baseline, LS mean (SE)",week 18,−1.06(0.51) ng/ml
same,"systolic blood pressure change from baseline, LS mean (SE)",week 18,−5.16(0.88) mmHg
same,"total cholesterol change from baseline, LS mean (SE)",week 18,3.66(1.88) mg/dL
same,"triglyceride change from baseline, LS mean (SE)",week 18,−12.39(4.34) mg/dL
same,"Change from baseline in HDL-C, ANCOVA LS mean",[2],3.42 mg/dL
same,"Change from baseline in HDL-C, Mean",[2],3.57 mg/dL
same,"Change from baseline in HDL-C, Median",[2],3.00 mg/dL
same,"Change from baseline in LDL-C, ANCOVA LS mean",[2],1.38 mg/dL
same,"Change from baseline in LDL-C, Mean",[2],0.93 mg/dL
same,"Change from baseline in LDL-C, Median",[2],1.50 mg/dL
same,"Change from baseline in total cholesterol, ANCOVA LS mean",[2],3.66 mg/dL
same,"Change from baseline in total cholesterol, Mean",[2],2.51 mg/dL
same,"Change from baseline in total cholesterol, Median",[2],1.00 mg/dL
same,"Change from baseline in triglycerides, ANCOVA LS mean",[2],-12.39 mg/dL
same,"Change from baseline in triglycerides, Mean",[2],-17.31 mg/dL
same,"Change from baseline in triglycerides, Median",[2],-8.50 mg/dL
same,"Fasting HDL-C, Mean",[2],50.99 mg/dL
same,"Fasting HDL-C, Median",[2],51.00 mg/dL
same,"Fasting LDL-C, Mean",[2],78.33 mg/dL
same,"Fasting LDL-C, Median",[2],73.00 mg/dL
same,"Fasting total cholesterol, Mean",[2],146.31 mg/dL
same,"Fasting triglycerides, Mean",[2],115.18 mg/dL
same,"Fasting triglycerides, Median",[2],103.00 mg/dL
same,"fasting Total cholesterol, Median",[2],141.00 mg/dL
same,"Change from baseline in diastolic blood pressure, ANCOVA LS mean",[3],−2.42 mmHg
same,"Change from baseline in diastolic blood pressure, Mean",[3],−2.12 mmHg
same,"Change from baseline in diastolic blood pressure, Median",[3],−2.00 mmHg
same,"Diastolic blood pressure, Mean",[3],71.75 mmHg
same,"Diastolic blood pressure, Median",[3],71.00 mmHg
same,"Change from baseline in systolic blood pressure, ANCOVA LS mean",[4],−5.16 mmHg
same,"Change from baseline in systolic blood pressure, Mean",[4],−4.63 mmHg
same,"Change from baseline in systolic blood pressure, Median",[4],−4.00 mmHg
same,"Systolic blood pressure, Mean",[4],119.31 mmHg
same,"Systolic blood pressure, Median",[4],118.00 mmHg
same,"Adiponectin, Mean","week 18, per-protocol set",6.65 µg/mL
same,"Adiponectin, Median","week 18, per-protocol set",6.21 µg/mL
same,"Change from baseline in HOMA-IR, ANCOVA LS mean","week 18, per-protocol set",−1.01
same,"Change from baseline in HOMA-IR, Mean","week 18, per-protocol set",−1.00
same,"Change from baseline in HOMA-IR, Median","week 18, per-protocol set",−0.75
same,"Change from baseline in HOMA-β, ANCOVA LS mean","week 18, per-protocol set",4.49
same,"Change from baseline in HOMA-β, Mean","week 18, per-protocol set",5.32
same,"Change from baseline in HOMA-β, Median","week 18, per-protocol set",2.20
same,"Change from baseline in UACR, ANCOVA LS mean","week 18, per-protocol set",-8.90 g/kg
same,"Change from baseline in UACR, Mean","week 18, per-protocol set",-8.84 g/kg
same,"Change from baseline in UACR, Median","week 18, per-protocol set",0.20 g/kg
same,"Change from baseline in UGCR, ANCOVA LS mean","week 18, per-protocol set",45.40 mg/mg
same,"Change from baseline in UGCR, Mean","week 18, per-protocol set",43.29 mg/mg
same,"Change from baseline in UGCR, Median","week 18, per-protocol set",41.28 mg/mg
same,"Change from baseline in adiponectin, ANCOVA LS mean","week 18, per-protocol set",0.36 µg/mL
same,"Change from baseline in adiponectin, Mean","week 18, per-protocol set",0.30 µg/mL
same,"Change from baseline in adiponectin, Median","week 18, per-protocol set",0.36 µg/mL
same,"Change from baseline in leptin, ANCOVA LS mean","week 18, per-protocol set",-1.06 ng/mL
same,"Change from baseline in leptin, Mean","week 18, per-protocol set",-1.36 ng/mL
same,"Change from baseline in leptin, Median","week 18, per-protocol set",-0.75 ng/mL
same,"HOMA-IR (insulin resistance), Mean","week 18, per-protocol set",1.85
same,"HOMA-IR (insulin resistance), Median","week 18, per-protocol set",1.53
same,"HOMA-β (beta-cell function), Mean","week 18, per-protocol set",45.79
same,"HOMA-β (beta-cell function), Median","week 18, per-protocol set",36.80
same,"Leptin, Mean","week 18, per-protocol set",9.52 ng/mL
same,"Leptin, Median","week 18, per-protocol set",7.80 ng/mL
same,"UACR, Mean","week 18, per-protocol set",25.86 g/kg
same,"UACR, Median","week 18, per-protocol set",10.20 g/kg
same,"UGCR, Mean","week 18, per-protocol set",44.82 mg/mg
same,"UGCR, Median","week 18, per-protocol set",42.32 mg/mg
same,"Body weight, Mean",[5],64.37 kg
same,"Change from baseline in FPG, ANCOVA LS mean",[5],-23.55 mg/dL
same,"Change from baseline in FPG, Mean",[5],-24.80 mg/dL
same,"Change from baseline in FPG, Median",[5],-19.00 mg/dL
same,"Change from baseline in HbA1c, ANCOVA LS mean",[5],−0.75 % p
same,"Change from baseline in HbA1c, Mean",[5],−0.79 % p
same,"Change from baseline in HbA1c, Median",[5],−0.72 % p
same,"Change from baseline in body weight, ANCOVA LS mean",[5],-3.01 kg
same,"Change from baseline in body weight, Mean",[5],-2.84 kg
same,"Change from baseline in body weight, Median",[5],-2.70 kg
same,"Change from baseline in fasting C-peptide, ANCOVA LS mean",[5],-0.06 ng/mL
same,"Change from baseline in fasting C-peptide, Mean",[5],-0.06 ng/mL
same,"Change from baseline in fasting C-peptide, Median",[5],-0.07 ng/mL
same,"FPG, Mean",[5],115.72 mg/dL
same,"FPG, Median",[5],114.00 mg/dL
same,"Fasting C-peptide, Mean",[5],0.63 ng/mL
same,"Fasting C-peptide, Median",[5],0.60 ng/mL
same,"HbA1c, Mean",[5],7.04%
same,"HbA1c, Median",[5],6.97%
same,"Subjects achieving HbA1c target of <6.5%, (%)",[5],12.20%
same,"Subjects achieving HbA1c target of <7%, %",[5],56.10%
